Assay results from paper PMC5080649 (CPT: Pharmacometrics & Systems Pharmacology, 2016).
In brackets after ≈: the same amount, converted by molar mass. Read-outs that look alike come from different tables or passages of the source.

What was measured:
[1] = tested on: prothrombin time; assay: Prothrombin time; type: in vivo, human; details: for EC50: Homo sapiens; for comparable dose of rivaroxaban in PT: Monte-Carlo simulation
[2] = for CL renal: male, human, in vivo, GCC-4401C, plasma and urine PK modeling analysis from the SAD study
[3] = molecular target: factor Xa (Homo sapiens, UniProt P00742); assay: Antifactor Xa; type: in vivo
Sequence of factor Xa (Homo sapiens, UniProt P00742) (P00742 235-488 limits assumed): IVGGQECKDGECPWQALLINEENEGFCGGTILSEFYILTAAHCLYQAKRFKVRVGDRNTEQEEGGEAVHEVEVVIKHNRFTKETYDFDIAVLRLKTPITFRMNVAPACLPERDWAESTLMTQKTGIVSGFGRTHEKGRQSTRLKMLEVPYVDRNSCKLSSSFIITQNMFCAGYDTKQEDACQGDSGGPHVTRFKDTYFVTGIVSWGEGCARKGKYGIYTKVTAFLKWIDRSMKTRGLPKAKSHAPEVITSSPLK
Sequence of factor Xa (Homo sapiens, UniProt P00742) (P00742 41-179 limits assumed): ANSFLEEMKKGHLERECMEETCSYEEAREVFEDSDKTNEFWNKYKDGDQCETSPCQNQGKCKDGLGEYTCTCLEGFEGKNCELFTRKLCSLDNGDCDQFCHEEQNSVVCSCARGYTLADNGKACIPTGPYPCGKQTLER

[4] = molecular target: coagulation factor X (Homo sapiens, UniProt P00742); assay: Coagulation factor X; type: in vivo
Sequence of coagulation factor X (P00742 235-488 limits assumed): as the sequence (P00742 235-488 limits assumed) above
Sequence of coagulation factor X (P00742 41-179 limits assumed): as the sequence (P00742 41-179 limits assumed) above

[5] = tested on: activated partial thromboplastin time; assay: Activated partial thromboplastin time; type: in vivo, human; details: for EC50: Homo sapiens
[6] = molecular target: factor X (Homo sapiens, UniProt P00742); assay: Factor X chromogenic activity assay; type: in vivo; details: for comparable dose of rivaroxaban in FXCAA: Monte-Carlo simulation
Sequence of factor X (P00742 235-488 limits assumed): as the sequence (P00742 235-488 limits assumed) above
Sequence of factor X (P00742 41-179 limits assumed): as the sequence (P00742 41-179 limits assumed) above

[7] = oral, cited from earlier work
[8] = molecular target: factor Xa (Bos taurus, UniProt P00743); assay: LMWH assay; type: in vivo, human; details: GCC4401C, SAD study
[9] = tested on: antithrombin III; assay: Antithrombin III; type: in vivo, human; details: AT III activity; GCC4401C, SAD study; Linear model
[10] = PT (INR), Rivaroxaban, S&MAD study, Simple Emax model
[11] = rivaroxaban 20 mg, fed, S&MAD study
[12] = rivaroxaban 20 mg, fed, S&MAD study, variance (CV %)
[13] = Coagulation factor X, Rivaroxaban, S&MAD study, Sigmoid Emax model
[14] = Coagulation factor X, Rivaroxaban, S&MAD study, variance (CV %)
[15] = Activated PT (seconds), Rivaroxaban, S&MAD, Sigmoid Emax model
[16] = FXCAA, Rivaroxaban, S&MAD study, variance (CV %)
[17] = PT (INR), GCC4401C, SAD and S&MAD studies, Sigmoid Emax model
[18] = Prothrombin time (seconds), GCC4401C, Sigmoid Emax model
[19] = GCC4401C oral, fasted, SAD and S&MAD studies, final model
[20] = GCC4401C oral, fasted, SAD and S&MAD studies, variance (CV %)
[21] = GCC-4401C oral, fasted, base model
[22] = Antifactor Xa activity, GCC4401C, S&MAD study, Sigmoid Emax model
[23] = Antifactor Xa activity, GCC4401C, S&MAD study, variance (CV %)
[24] = Coagulation factor X, GCC4401C, SAD and S&MAD studies, variance (CV %)
[25] = Coagulation factor X, GCC4401C, variance (CV %)
[26] = FXCAA, GCC4401C, S&MAD study, variance (CV %)

O=C(NC[C@H]1CN(c2ccc(N3CCOCC3=O)cc2)C(=O)O1)c1ccc(Cl)s1 [rivaroxaban, reference compound]
EC50 [1, 10]: 0.434 µg/mL (≈ 0.996 µM)
Emax [1, 10]: 0.71 INR
Emax ([1]; Prothrombin time (seconds), Rivaroxaban, S&MAD study, Simple Emax model): 6.86 s
D1 (duration of zero-order absorption) [2, 11]: 1.07 h
γ (shape parameter in Weibull-type absorption model) [2, 11]: 1.34
IIVCL (%) [2, 12]: 0.015 (12.3)
IIVKa (CV, %) [2, 12]: 3.3 (503.1)
IIVVc (CV, %) [2, 12]: 0.01 (10.0)
IIVVp (CV, %) [2, 12]: 0.06 (25.7)
SLOPE ([3]; Antifactor Xa activity, Rivaroxaban, S&MAD study, Linear model): 0.005
IIVSLOPE (CV, %) ([3]; Antifactor Xa activity, Rivaroxaban, S&MAD study, variance (CV %)): 0.01 (10.8)
Emax [4, 13]: 42.9%
γ (shape parameter) [4, 13]: 0.90
IIVEC50 (CV, %) [4, 14]: 0.33 (62.1)
IOVEC50 (CV, %) [4, 14]: 0.25 (52.9)
Emax [5, 15]: 12.4 s
γ (shape parameter) [5, 15]: 0.94
EC50 [5]: 0.135 µg/mL (≈ 0.31 µM)
Emax ([6]; FXCAA, Rivaroxaban, S&MAD study, Simple Emax model): 112.0%
IIVEC50 (CV, %) [6, 16]: 0.07 (26.9)
IOVEC50 (CV, %) [6, 16]: 0.01 (8.2)
increase of Cmax with food ([7]; >10 mg, with food vs fasting): 76%
increase of mean area under concentration time curve with food ([7]; >10 mg, with food vs fasting): 39%
bioavailability ([7]; independent of food up to 10 mg): 80–100%

CS(=O)(=O)O.O=C(NC[C@H]1CN(c2ccc(N3CCNC=N3)cc2)C(=O)O1)c1ccc(Cl)s1 [GCC‐4401C, (S)−5‐chloro‐N‐((3‐(4‐(5,6‐dihydro‐1,2,4‐triazin‐1(4H)‐yl)phenyl)−2‐oxooxazolidin‐5‐yl)methyl)thiophene‐2‐carboxamide methanesulfonate]
Emax ([8]; Simple Emax model): 3.83
IIVEC50 (CV, %) ([8]; variance (CV %)): 0.29 (57.4)
EC50 ([1]; read-out: EC50, SAD, PT (INR), GCC4401C, SAD study, Sigmoid Emax model): 0.426 µg/mL
EC50 ([1]; read-out: EC50, SAD, Prothrombin time (seconds), GCC4401C, SAD study, Sigmoid Emax model): 0.563 µg/mL
EC50 ([1]; read-out: EC50, SAD/MAD, PT (INR), GCC4401C, SAD/MAD study, Sigmoid Emax model): 1.35 µg/mL
EC50 ([1]; read-out: EC50, SAD/MAD, Prothrombin time (seconds), GCC4401C, SAD/MAD study, Sigmoid Emax model): 1.45 µg/mL
comparable dose of rivaroxaban in PT ([1]; GCC-4401C 10 mg): 30 to 40 mg
comparable dose of rivaroxaban in PT ([1]; GCC-4401C 20 mg): ~40 mg
Emax [1, 17]: 1.32 INR
γ (shape parameter) [1, 17]: 1.23
Emax [1, 18]: 15.2 s
γ (shape parameter) [1, 18]: 1.16
ALAG1 (delay in absorption) [2, 19]: 0.20 h
D1 (duration of zero-order absorption) [2, 19]: 0.395 h
IIV + IOVALAG1 (CV, %) [2, 20]: 0.14 (38.8)
IIV + IOVD1 (CV, %) [2, 20]: 1.49 (185.4)
IIVCLNR (CV, %) [2, 20]: 0.046 (21.7)
IIVCLR (CV, %) [2, 20]: 0.052 (23.2)
IIVKa (CV, %) [2, 20]: 0.97 (128.0)
IIVVc (CV, %) [2, 20]: 0.09 (30.5)
IIVVp (CV, %) [2, 20]: 0.11 (33.8)
Θ for WT and Vc (power covariate effect of body weight on Vc) ([2]; GCC4401C, Typical Vc=Vc(75)*(WT/75)^Θ): 0.67
Vc [2, 21]: 55.6 L
Vp [2, 21]: 25.9 L
average steady-state volume of distribution [2, 21]: 81.5 L
total clearance ([2]; GCC-4401C oral, fasted, final model): 12.0 L/h
CL renal ([2]; nonrenal clearance (CLNR)): 200 mL/min
CL renal ([2]; renal clearance (CLR)): 13.7 mL/min
EC50 [3]: 1350 nM
Emax [3, 22]: 3.24 IU/mL
γ (shape parameter) [3, 22]: 1.25
IIV + IOVEC50 (%) [3, 23]: 0.005 (7.2)
IIVEmax (CV, %) [3, 23]: 0.04 (20.8)
IIVγ (CV, %) [3, 23]: 0.02 (13.4)
comparable dose of rivaroxaban in AFX assay ([3]; Monte-Carlo simulation, GCC-4401C 10 mg): ~20 mg
comparable dose of rivaroxaban in AFX ([3]; Monte-Carlo simulation, GCC-4401C 20 mg): ~40 mg
EC50 [4]: 5580 nM
Emax ([4]; Coagulation factor X, GCC4401C, SAD and S&MAD studies, Sigmoid Emax model): 81.2%
IIVEC50 (%) [4, 24]: 0.98 (129.4)
IIVEmax (CV, %) [4, 24]: 0.10 (33.1)
γSAD (shape parameter) ([4]; Coagulation factor X, GCC4401C, SAD study, Sigmoid Emax model): 1.07
γSAD/MAD (shape parameter) ([4]; Coagulation factor X, GCC4401C, SAD/MAD study, Sigmoid Emax model): 0.60
IIVγ (CV, %) [4, 25]: 0.24 (51.8)
IOVγ (CV, %) [4, 25]: 0.09 (30.1)
Emax, SAD ([5]; Activated PT (seconds), GCC4401C, SAD study, Sigmoid Emax model): 16.9 s
Emax, SAD/MAD ([5]; Activated PT (seconds), GCC4401C, SAD/MAD study, Sigmoid Emax model): 20.4 s
γ (shape parameter) ([5]; Activated PT (seconds), GCC4401C, Sigmoid Emax model): 1.37
EC50 [5]: 0.573 µg/mL
EC50 [6]: 814 nM
γ (shape parameter) ([6]; FXCAA, GCC4401C, S&MAD study, Sigmoid Emax model): 0.90
IIVEmax (CV, %) [6, 26]: 0.01 (11.3)
IIVγ (CV, %) [6, 26]: 0.06 (25.7)
Emax ([6]; Factor X chromogenic activity assay, GCC4401C, S&MAD study, Sigmoid Emax model): 99.8%
comparable dose of rivaroxaban in FXCAA ([6]; GCC-4401C 10 mg): 30 to 40 mg
comparable dose of rivaroxaban in FXCAA ([6]; GCC-4401C 20 mg): ~80 mg
SLOPE [9]: 0.006
